Laboratory results as given in patent publication US20210315799A1, “Composition for Promoting Differentiation or Proliferation of Human Adipose-Derived Stem Cell” (LG Household & Health Care Ltd., priority 2018, published 2021).

How the values were obtained:
Type in all cases: cell-based
[1] = tested on: human adipose-derived stem cells; test: Cell activity / proliferation by CCK-8 kit (Example 6); details: for cell activity rates / proliferation of human adipose-derived stem cells compared to a control: FIG. 6; for concentration at which the substance showed the highest cell activity: tested at 0.2 ppm, 2 ppm and 20 ppm
Experimental: Human adipose-derived stem cells were purchased from Lonza, Inc. (Walkersville, Md., USA) and incubated in a CO2 incubator at 37° C. under 5% CO2 conditions. After the human adipose-derived stem cells were treated with 0.2 ppm, 2 ppm, and 20 ppm, respectively, cell activities thereof were identified using a CCK-8 kit (Dojindo).

[2] = tested on: human adipose-derived stem cells; test: Quantified differentiation: eluted Oil Red O, absorbance at 490 nm (Example 3); details: Oil Red O eluted with isopropanol, absorbance 490 nm; compared with negative control (differentiation medium only); FIG. 2
Experimental: (§1) Human adipose-derived stem cells were purchased from Lonza, Inc. (Walkersvile, Md., USA) and cultured according to guidelines of Lonza, Inc. Differentiation into adipose cells was evaluated using a differentiation medium recommended by Lonza, Inc. As a positive control, the cells were treated with 1 μM rosiglitazone together with the differentiation medium. In order to induce differentiation of human adipose-derived stem cells into adipose cells, a cell culture solution was removed at 3 to 5 days after cell culturing was initiated, and the cells were treated with formononetin, acetyl mandelic acid, Magnoliae cortex extract, and the positive control for 14 days.
(§2) At 14 days after differentiation was initiated, the cell culture solution was removed, and the cells were washed with a phosphate buffer (DPBS) and immobilized using 10% formalin. The immobilized cells were observed using a microscope after staining fats and lipids contained in the adipose cells with Oil Red 0.
Cultured human adipose-derived stem cells were treated with 12 types of the compounds including formononetin and a Magnoliae cortex extract and an Aloe vera extract in the same manner as in Example 2. Stained Oil Red 0 was eluted using a 100% isopropanol solution, and absorbance thereof was measured at a wavelength of 490 nm and quantified. […] It was confirmed that the substances according to the present invention promoted differentiation of human adipose-derived stem cells into adipose cells and effectively promoted differentiation into adipose cells compared to non-differentiation substances such as kaempferol. Thus, the compositions including the substances according to the present invention may be used for anti-aging purposes to enhance skin elasticity and reduce skin wrinkles by promoting differentiation of human adipose-derived stem cells and increasing the number of subcutaneous fat cells.

[3] = tested on: human adipose-derived stem cells; test: Oil Red O staining of differentiated adipose cells, observed by microscope (Example 2); details: treated 14 days; compared with negative control treated only with differentiation medium; FIG. 1
Experimental: as §1, §2

Molecule	cell activity rates / proliferation of human adipose-derived stem cells compared to a control [1]	concentration at which the substance showed the highest cell activity [1]	relative differentiation rate of human adipose-derived stem cells into adipose cells [2]	effects on differentiation of human adipose-derived stem cells into adipose cells (Oil Red O staining) [3]
CC(C)=CCC[C@@H](C)[C@H]1CC[C@@]2(C)C3=C(CC[C@]12C)[C@@]1(C)CC[C@H](O)C(C)(C)[C@@H]1CC3 [lanosterol]	significantly increased	2 ppm	–	–
O=C(O)c1cc(O)c(O)c(O)c1 [gallic acid]	significantly increased	20 ppm	–	–
CC(C)c1cc2c(c(O)c1O)[C@@]1(C(=O)O)CCCC(C)(C)[C@@H]1CC2 [carnosic acid]	significantly increased	2 ppm	effectively promote differentiation	–
COC1=C(OC)C(=O)C(C/C=C(\C)CC/C=C(\C)CC/C=C(\C)CC/C=C(\C)CC/C=C(\C)CC/C=C(\C)CC/C=C(\C)CC/C=C(\C)CC/C=C(\C)CCC=C(C)C)=C(C)C1=O [ubiquinone, ubiquinone 10]	–	–	effectively promote differentiation	–
CC(=O)OC(C(=O)O)c1ccccc1 (stereo not shown) [acetyl mandelic acid, O-acetyl mandelic acid]	–	–	effectively promote differentiation	superior to those of the negative control
Cc1cc(O)c2c(c1)C(=O)c1cc(O)cc(O)c1C2=O [emodin]	–	–	effectively promote differentiation	–
Cc1cc2nc3c(=O)[nH]c(=O)nc-3n(C[C@H](O)[C@H](O)[C@H](O)COP(=O)([O-])O)c2cc1C.[Na+] [sodium riboflavin phosphate]	significantly increased	20 ppm	–	–
Cc1cc2nc3c(=O)[nH]c(=O)nc-3n(C[C@H](O)[C@H](O)[C@H](O)CO)c2cc1C [lactoflavin, riboflavin]	significantly increased	20 ppm	–	–
Cc1cc(S(=O)(=O)[O-])c2c(C)ccc(C(C)C)cc1-2.[Na+] [sodium guaiazulene sulfonate]	–	–	effectively promote differentiation	–
O=c1cccccc1O [tropolone]	significantly increased	2 ppm	–	–
O=c1c(O)c(-c2ccc(O)cc2)oc2cc(O)cc(O)c12 [kaempferol, reference compound]	–	–	non-differentiation	–
CC1=CC(=O)c2ccccc2C1=O [menadione]	significantly increased	0.2 ppm	–	–
laccaic acid	–	–	effectively promote differentiation	–
CC(=O)CCc1ccc(O)cc1 [raspberry ketone]	significantly increased	20 ppm	–	–
terpineol	significantly increased	20 ppm	–	–
COc1ccc(-c2coc3cc(O)ccc3c2=O)cc1 [formononetin]	–	–	effectively promote differentiation	superior to those of the negative control
CCCCCCCCCCCCCCCC(N)=O [palmitamide]	–	–	effectively promote differentiation	–
CC1=C[C@H](O)CC(C)(C)[C@H]1/C=C/C(C)=C/C=C/C(C)=C/C=C/C=C(C)/C=C/C=C(C)/C=C/C1=C(C)C[C@@H](O)CC1(C)C [xanthophyll, lutein]	significantly increased	20 ppm	effectively promote differentiation	–
CC1(C)[C@@H](O)CC[C@]2(C)[C@H]3C(=O)C=C4[C@@H]5C[C@@](C)(C(=O)O)CC[C@]5(C)CC[C@@]4(C)[C@]3(C)CC[C@@H]12 [glycyrrhetinic acid]	significantly increased	20 ppm	–	–
O=C(O)CCCC[C@@H]1CCSS1 (racemic) [thioctic acid]	significantly increased	20 ppm	–	–
O=C(O)/C=C/c1cccc(O)c1 [hydroxycinnamic acid, m-coumaric acid]	–	–	effectively promote differentiation	–
O=C(O)/C=C/c1ccc(O)c(O)c1 [caffeic acid]	significantly increased	20 ppm	effectively promote differentiation	–
